Laboratory results from paper PMC10761933, “Acquired and intrinsic resistance to vemurafenib in BRAF^V600E ‐driven melanoma brain metastases” (FEBS Open Bio, 2023).

Experiments:
intracranial A375 tumors = assay: Efficacy against intracranial A375 melanoma tumors (BLI, survival); assay type: in vivo, mice
Protocol: (§1) For subcutaneous xenograft models, 30 μL of cell suspension containing 3 × 10^6 A375 cells was injected into both flanks of FVB WT and Abcb1a/b;Abcg2 ^ −/− nude mice. For xenograft MBM models, stereotactic intracranial injections (A375 and Mel57) or intracarotid injections (K1735) of melanoma cells were performed as described previously. For intracranial injections, FVB nude mice were injected intracranially with 2 μL of A375 or Mel57 cell suspension containing 1 × 10^5 cells 2 mm lateral, 1 mm anterior, and 3 mm ventral from the bregma. For intracarotid injections, 1 × 10^5 cells in 100 μL HBSS were injected in the left common carotid artery of C3H/HeN mice. Tumor growth was measured by bioluminescence imaging (BLI) for intracranial tumors and by caliper for subcutaneous tumors. The volume of subcutaneous tumors was calculated in mm^3 using the modified ellipsoid formula (volume = 0.5 × length × width^2). Bioluminescence images were acquired following i.p. D‐luciferin (150 mg·kg^−1; Promega) using an IVIS 200 or IVIS Spectrum system with LIVING IMAGE software v4.5 (both PerkinElmer, Waltham, MA, USA). Animals were stratified into treatment groups to achieve a similar mean bioluminescence reading within each cohort. The bioluminescence intensity of each individual animal on the day of the start of treatment (Day 0) was arbitrarily set at 100%. All subsequent measurements were recorded relative to this first measurement and converted to their log values. Mean ± standard error (SE) values were calculated and plotted in graphs.
(§2) For the subcutaneous tumor model, therapy was initiated 2 weeks after implantation, when the tumor volume exceeded 40 mm^3. FVB WT and Abcb1a/b;Abcg2 ^ −/− nude mice (n = 8) received 25 and 10 mg·kg^−1 of vemurafenib daily, respectively. Control mice (n = 8) received vehicle. Tumor development was assessed by caliper twice a week. For the intracranial tumor model, treatment was started about 2 weeks after intracranial injection of tumor cells, when full‐blown tumors were present in all animals. WT and Abcb1a/b;Abcg2 ^ −/− nude mice received vehicle, 25 mg·kg^−1 vemurafenib, 10 mg·kg^−1 vemurafenib plus 100 mg·kg^−1 elacridar, or 10 mg·kg^−1 vemurafenib once daily for 10 consecutive days or in a 5 days on/2 days off/5 days on schedule, as indicated in the relevant figure panels. Tumor growth was monitored by BLI every 4 or 5 days. Mice were weighed daily weighed examined for abnormalities. The mice were humanely sacrificed based on BLI results or when weight loss exceeded 20% of the initial body weight.

subcutaneous A375 tumors = assay: Efficacy against subcutaneous A375 tumors (caliper); assay type: in vivo; settings: 25 mg·kg^−1 in WT mice and 10 mg·kg^−1 in Abcb1a/b;Abcg2−/− mice, 13 consecutive days
Protocol: as §1, with “Bioluminescence images were acquired following i.p. D‐luciferin (150 mg·kg^−1; Promega) using an IVIS 200 or IVIS Spectrum system with LIVING IMAGE software v4.5 (both PerkinElmer, Waltham, MA, USA).” left out, “The bioluminescence intensity of each individual animal on the day of the start of treatment (Day 0) was arbitrarily set at 100%.” left out
For the subcutaneous tumor model, therapy was initiated 2 weeks after implantation, when the tumor volume exceeded 40 mm^3. […] Tumor development was assessed by caliper twice a week. […]

[1] = Body weight during efficacy studies; assay type: in vivo, mice
Protocol: as §2

[2] = Vemurafenib distribution in plasma, brain regions and tumor of A375 tumor‐bearing mice (LC–MS/MS); assay type: in vivo; settings: for discrepancy in plasma concentration vs the previous pharmacokinetic experiment: 4 h after third daily administration
Protocol: To study its distribution in tumor‐bearing mice, vemurafenib was administered p.o. to tumor‐bearing mice for 3 days at a dose of 10 or 25 mg·kg^−1 q.d., starting 14 days after intracranial tumor cell injection. One group of mice received 10 mg·kg^−1 vemurafenib 4 h after administration of 100 mg·kg^−1 elacridar. Four hours after the third administration, blood was collected by heart puncture, and whole brains were dissected and divided into four parts: ipsilateral hemisphere (tissue from the tumor‐bearing hemisphere that was free of macroscopic tumor tissue), contralateral hemisphere (the tumor‐free hemisphere), cerebellum and macroscopic tumor. In a follow‐up experiment, tissues and plasma were collected 4 h after 5 and 10 consecutive daily p.o. administrations of vemurafenib. All tissues were weighed and subsequently homogenized using a FastPrep®‐24 (MP‐Bio‐medicals, Irvine, CA, USA) in 3 mL 1% (w/v) bovine serum albumin. All tissue samples were prepared for LC–MS/MS analysis as described above for plasma samples.
The LC–MS/MS system consisted of an API 3000 mass spectrometer (Sciex, Framingham, MA, USA) coupled to an UltiMate 3000 LC System (Dionex, Sunnyvale, CA, USA). Samples were separated using a ZORBAX Extend‐C18 column (Agilent, Santa Clara, CA, USA), preceded by a Securityguard C18 precolumn (Phenomenex, Utrecht, the Netherlands). Elution was done using a mixture of mobile phase A (0.1% formic acid in water (v/v)) and mobile phase B (methanol) in a 5 min gradient from 20% to 95% B, followed by 95% B that was maintained for 3 min and then re‐equilibrated at 20% B. Multiple reaction monitoring parameters were 490.2/383.1 (vemurafenib) and 496.2/389.1 (vemurafenib‐^13C6). System control and data analysis were done using ANALYST ® 1.6.2 software (AB Sciex, Foster City, CA, USA).

[3] = oral, WT mice; cited from earlier work
[4] = test system: melanoma brain metastases; settings: MBM patients; cited from earlier work

With `CCCS(=O)(=O)Nc1ccc(F)c(C(=O)c2c[nH]c3ncc(-c4ccc(Cl)cc4)cc23)c1F` [vemurafenib] the survival (intracranial A375 tumors; Abcb1a/b;Abcg2−/− mice, 10 mg·kg^−1 q.d. × 10d) was “not significantly extended”, the “tumor growth of intracranial A375 tumors” value (intracranial A375 tumors; Abcb1a/b;Abcg2−/− mice, 10 mg·kg^−1 q.d. × 10d, first 3 days of treatment, regrowth under therapy afterwards) was “induced tumor regression” and the “tumor growth of intracranial A375 tumors” value (intracranial A375 tumors; Abcb1a/b;Abcg2−/− mice, two cycles of 5 days of 25 mg·kg^−1 daily oral) was “induced regression and subsequent tumor stasis”. The survival (intracranial A375 tumors; Abcb1a/b;Abcg2−/− mice, two cycles of 5 days of 25 mg·kg^−1 daily oral, vs vehicle) was “a survival difference was already established”, the “antitumor efficacy against intracranial A375 tumors with pharmacological P‐gp/BCRP inhibition vs Abcb1a/b;Abcg2−/− mice at same dose” value (intracranial A375 tumors; WT mice, 10 mg·kg^−1 vemurafenib + 100 mg·kg^−1 elacridar) was “less efficacious” and the “tumor growth of intracranial A375 tumors” value (intracranial A375 tumors; WT mice, 25 mg·kg^−1 q.d. × 10d) was “only reduced A375 growth speed”. For the same compound, the “efficacy against subcutaneous A375 tumors, WT vs Abcb1a/b;Abcg2−/− mice” value (subcutaneous A375 tumors) was “equally effective”, the body weight ([1]; Abcb1a/b;Abcg2−/− mice with intracranial A375, two cycles of 5 days of 25 mg·kg^−1 daily oral) was “without affecting body weight” and the body weight ([1]; intracranial A375, any treatment regimen (WT 25, WT 10 + elacridar, Abcb1a/b;Abcg2−/− 10 mg·kg^−1)) was “could not observe any weight loss”. For the same compound, the body weight ([1]; subcutaneous A375, 25 mg·kg^−1 in WT and 10 mg·kg^−1 in Abcb1a/b;Abcg2−/− mice, 13 days) was “did not result in body weight loss”, the “levels in tumor core of WT mice relative to Abcb1a/b;Abcg2−/− mice” value ([2]; 4 h after third daily oral administration) was “approximately half” and the “concentration in tumor regions, 10 days vs 5 days of treatment” value ([2]; Abcb1a/b;Abcg2−/− mice and WT mice also receiving elacridar) was “even higher at the later time point”. The Kp at 4 h ([2]; FVB nude, mouse, oral, 25 mg·kg^−1, WT mice, stated as very close to the total blood volume of the murine brain, read-out: tissue–plasma ratios in normal brain regions) was ~0.02, the “penetration in normal brain regions” value ([2]; WT mice, 4 h after third daily oral administration) was “negligible” and the “discrepancy in plasma concentration vs the previous pharmacokinetic experiment” value ([2]; tumor‐bearing Abcb1a/b;Abcg2−/− mice) was “twofold”. The “discrepancy in plasma concentration vs the previous pharmacokinetic experiment” value ([2]; tumor‐bearing WT mice that also received elacridar) was “no difference”, the “plasma concentration, long‐term (10 days) vs short‐term (5 days) treated” value ([2]; tumor‐bearing WT mice, 25 mg·kg^−1) was “considerably lower” and the “plasma concentration relative to the previous pharmacokinetic experiment (single dose, tumor‐free)” value ([2]; tumor‐bearing WT mice, 25 mg·kg^−1, 4 h after third daily administration) was “around one‐fourth”. The “brain–plasma ratio” value [3] was “around 0.02” and the median overall survival [4] was 4.3 months.
